# Assay results: patent publication US20210214758A1, “METHODS AND TOOLS FOR DETERMINING CLONAL RELATEDNESS AND PREDICTING CLONAL TRAITS” (priority 2018, published 2021)
# Test system: Klebsiella isolates
# Assay: Antibiotic susceptibility of Klebsiella clinical isolates per 7-SNP clonotype (Lookup Table 1; disk diffusion)
# Assay type: cell-based, Klebsiella spp.
# Method: In further embodiments, the Lookup Table is Lookup Table 1. The information contained in Lookup Table 1 below was obtained from urine specimens from patients with Klebsiella infections from several clinics within different regions of the United States. CT=clonotypes determined using a 7-SNP combination: phoE54; rpoB130; infB279; mdh315; phoE336; phoE354; and mdh429.
# Next, antibiotic resistance was determined for all 387 Klebsiella isolates in the discovery set. Antibiotic testing was carried out according to the standard disk diffusion method as described in the Clinical and Laboratory Standards Institute (M100 Performance Standards for Antimicrobial Susceptibility Testing, 27th Edition, 2017). […] Since almost all Klebsiella isolates are known to be resistant to AMP and sensitive to IMI, TET is not used for treatment of urinary tract infections, and ESBL production is partially reflected in resistance to CTR, these antibiotics were not included for further analysis.
# To aid in clinical decision-making and to translate clonotype information to treatment selection, Lookup Table 1 was generated. […] The information contained in Lookup Table 1 was obtained from urine specimens from patients with Klebsiella infections from several clinics within different regions of the United States. Indications of allowance or non-recommendation were determined based on a 20% resistance threshold to the indicated antibiotic; i.e., the antibiotic is recommended when more than 80% of the tested isolates within the indicated clonotype were susceptible to the indicated antibiotic, and was cautioned against when less than 80% of the isolates were susceptible to the antibiotic.
smiles,measurement,setting,value
"O=C1CN(/N=C/c2ccc([N+](=O)[O-])o2)C(=O)N1 [NIT, nitrofurantoin]","susceptibility, %",CT 000,91%
same,"susceptibility, %",CT 001,0%
same,"susceptibility, %",CT 010,33%
same,"susceptibility, %",CT 011,82%
same,"susceptibility, %",CT 031,100%
same,"susceptibility, %",CT 040,50%
same,"susceptibility, %",CT 050,33%
same,"susceptibility, %",CT 051,56%
same,"susceptibility, %",CT 071,60%
same,"susceptibility, %",CT 100,86%
same,"susceptibility, %",CT 110,0%
same,"susceptibility, %",CT 111,30%
same,"susceptibility, %",CT 130,70%
same,"susceptibility, %",CT 131,56%
same,"susceptibility, %",CT 141,0%
same,"susceptibility, %",CT 150,42%
same,"susceptibility, %",CT 151,41%
same,"susceptibility, %",CT 160,0%
same,"susceptibility, %",CT 170,39%
same,"susceptibility, %",CT 171,28%
same,"susceptibility, %",CT 200,97%
same,"susceptibility, %",CT 201,66%
same,"susceptibility, %",CT 210,57%
same,"susceptibility, %",CT 211,81%
same,"susceptibility, %",CT 230,0%
same,"susceptibility, %",CT 231,50%
same,"susceptibility, %",CT 240,100%
same,"susceptibility, %",CT 241,0%
same,"susceptibility, %",CT 250,50%
same,"susceptibility, %",CT 251,57%
same,"susceptibility, %",CT 271,50%
same,"susceptibility, %",CT 300,0%
same,"susceptibility, %",CT 301,64%
same,"susceptibility, %",CT 310,47%
same,"susceptibility, %",CT 311,60%
same,"susceptibility, %",CT 330,15%
same,"susceptibility, %",CT 331,53%
same,"susceptibility, %",CT 350,54%
same,"susceptibility, %",CT 351,59%
same,"susceptibility, %",CT 370,25%
same,"susceptibility, %",CT 371,25%
same,"susceptibility, %",CT 411,50%
same,"susceptibility, %",CT 450,50%
same,"susceptibility, %",CT 451,67%
same,"susceptibility, %",CT 510,0%
same,"susceptibility, %",CT 511,100%
same,"susceptibility, %",CT 530,31%
same,"susceptibility, %",CT 531,33%
same,"susceptibility, %",CT 550,19%
same,"susceptibility, %",CT 551,18%
same,"susceptibility, %",CT 570,25%
same,"susceptibility, %",CT 571,50%
same,"susceptibility, %",CT 611,50%
same,"susceptibility, %",CT 630,0%
same,"susceptibility, %",CT 650,63%
same,"susceptibility, %",CT 651,35%
same,"susceptibility, %",CT 670,0%
same,"susceptibility, %",CT 710,67%
same,"susceptibility, %",CT 730,36%
same,"susceptibility, %",CT 731,67%
same,"susceptibility, %",CT 750,50%
same,"susceptibility, %",CT 751,33%
same,"susceptibility, %",CT 771,57%
same,"susceptibility, %",CT Any Klebsiella spp.,59%
"CN(C)[C@@H]1C(O)=C(C(N)=O)C(=O)[C@@]2(O)C(O)=C3C(=O)c4c(O)cccc4[C@@](C)(O)[C@H]3C[C@@H]12 [TET, tetracycline]","susceptibility, %",CT 000,93%
same,"susceptibility, %",CT 001,0%
same,"susceptibility, %",CT 010,67%
same,"susceptibility, %",CT 011,73%
same,"susceptibility, %",CT 031,67%
same,"susceptibility, %",CT 040,50%
same,"susceptibility, %",CT 050,76%
same,"susceptibility, %",CT 051,85%
same,"susceptibility, %",CT 071,80%
same,"susceptibility, %",CT 100,100%
same,"susceptibility, %",CT 110,100%
same,"susceptibility, %",CT 111,90%
same,"susceptibility, %",CT 130,88%
same,"susceptibility, %",CT 131,52%
same,"susceptibility, %",CT 141,100%
same,"susceptibility, %",CT 150,80%
same,"susceptibility, %",CT 151,75%
same,"susceptibility, %",CT 160,100%
same,"susceptibility, %",CT 170,91%
same,"susceptibility, %",CT 171,81%
same,"susceptibility, %",CT 200,83%
same,"susceptibility, %",CT 201,83%
same,"susceptibility, %",CT 210,76%
same,"susceptibility, %",CT 211,88%
same,"susceptibility, %",CT 230,0%
same,"susceptibility, %",CT 231,100%
same,"susceptibility, %",CT 240,100%
same,"susceptibility, %",CT 241,100%
same,"susceptibility, %",CT 250,85%
same,"susceptibility, %",CT 251,83%
same,"susceptibility, %",CT 271,79%
same,"susceptibility, %",CT 300,0%
same,"susceptibility, %",CT 301,88%
same,"susceptibility, %",CT 310,93%
same,"susceptibility, %",CT 311,80%
same,"susceptibility, %",CT 330,80%
same,"susceptibility, %",CT 331,75%
same,"susceptibility, %",CT 350,83%
same,"susceptibility, %",CT 351,86%
same,"susceptibility, %",CT 370,75%
same,"susceptibility, %",CT 371,100%
same,"susceptibility, %",CT 411,100%
same,"susceptibility, %",CT 450,83%
same,"susceptibility, %",CT 451,100%
same,"susceptibility, %",CT 510,100%
same,"susceptibility, %",CT 511,100%
same,"susceptibility, %",CT 530,75%
same,"susceptibility, %",CT 531,100%
same,"susceptibility, %",CT 550,75%
same,"susceptibility, %",CT 551,93%
same,"susceptibility, %",CT 570,75%
same,"susceptibility, %",CT 571,100%
same,"susceptibility, %",CT 611,67%
same,"susceptibility, %",CT 630,100%
same,"susceptibility, %",CT 650,83%
same,"susceptibility, %",CT 651,92%
same,"susceptibility, %",CT 670,100%
same,"susceptibility, %",CT 710,67%
same,"susceptibility, %",CT 730,79%
same,"susceptibility, %",CT 731,85%
same,"susceptibility, %",CT 750,95%
same,"susceptibility, %",CT 751,100%
same,"susceptibility, %",CT 771,100%
same,"susceptibility, %",CT Any Klebsiella spp.,82%
